Laboratory results reported in ChEMBL document CHEMBL5131385, “Novel piperazine based benzamide derivatives as potential anti-glioblastoma agents inhibiting cell proliferation and cell cycle progression” (Eur J Med Chem, 2022).
Active and inactive are the calls of the source. No cut-off for these calls is given here.

Tests used:
[1] = Induction of apoptosis in human U-87 MG cells assessed as early apoptotic cells at 0.30 uM incubated for 72 hrs by Annexin V-FITC/PI staining based flow cytometry method (reference value: 2.53 %); format: functional, U-87MG ATCC; details: dose 0.3 µM
[2] = Cmax in Sprague-Dawley rat brain at 100 mg/kg, ip and measured upto 240 mins by LC-MS analysis; format: ADME, organism-based; set-up: time < 240 min, dose 100 mg/kg, route ip
[3] = Induction of apoptosis in human U-87 MG cells assessed as necrotic cells at 0.30 uM incubated for 72 hrs by Annexin V-FITC/PI staining based flow cytometry method (reference value: 0.21 %); format: functional, U-87MG ATCC; details: dose 0.3 µM
[4] = system: U-251; test: Induction of apoptosis in human U-251 cells assessed as reduction in cell count at 0.375 to 6 uM measured after 72 hrs by Giemsa staining based microscopic analysis; format: functional; details: dose 0.375-6 µM
[5] = system: U-87MG ATCC; test: Induction of apoptosis in human U-87 MG cells assessed as enlargement of intracellular space at 0.075 to 1.20 uM measured after 72 hrs by Giemsa staining based microscopic analysis; format: functional, cell-based; details: dose 0.075-1.2 µM
[6] = system: U-87MG ATCC; test: Downregulation of CDK4 gene expression in human U-87 MG cells at 0.075 to 1.2 uM measured after 72 hrs by western blot analysis; format: functional, cell-based; details: dose 0.075-1.2 µM
[7] = system: U-87MG ATCC; test: Antiinvasive activity against human U-87 MG cells assessed as inhibition of cell invasion at 0.125 to 0.50 uM and measured after 24 hrs by transwell invasion assay; format: functional, cell-based; details: dose 0.125-0.5 µM, DDE = dose-dependent effect
[8] = Induction of apoptosis in human U-87 MG cells assessed as viable cells at 1.20 uM incubated for 72 hrs by Annexin V-FITC/PI staining based flow cytometry method (reference value: 96.84 %); format: functional, U-87MG ATCC; details: read-out: Activity
[9] = system: U-251; test: Induction of apoptosis in human U-251 cells assessed as decrease in cell size at 0.375 to 6 uM measured after 72 hrs by Giemsa staining based microscopic analysis; format: functional; details: dose 0.375-6 µM
[10] = AUC (0 to infinity) in Sprague-Dawley rat brain at 100 mg/kg, ip and measured upto 240 mins by LC-MS analysis; format: ADME, organism-based; set-up: dose 100 mg/kg, time < 240 min, route ip
[11] = system: U-87MG ATCC; test: Induction of apoptosis in human U-87 MG cells assessed as decrease in cell size at 0.075 to 1.20 uM measured after 72 hrs by Giemsa staining based microscopic analysis; format: functional; details: dose 0.075-1.2 µM
[12] = system: U-251; test: Antimigratory activity in human U-251 cells assessed as inhibition of cell migration by measuring wound closure at 0.25 to 1.0 uM and measured after 24 hrs by transwell migration assay; format: functional, cell-based; details: dose 0.25-1 µM, DDE = dose-dependent effect
[13] = Induction of apoptosis in human U-87 MG cells assessed as late apoptotic cells at 0.075 uM incubated for 72 hrs by Annexin V-FITC/PI staining based flow cytometry method (reference value: 0.42 %); format: functional, U-87MG ATCC
[14] = Acute toxicity in Kunming mouse assessed as pathological changes in kidney at 600 mg/kg, ip measured after 24 hrs by H and E staining analysis; format: organism-based; details: in vivo
[15] = Acute toxicity in Kunming mouse assessed as pathological changes in lung at 600 mg/kg, ip measured after 24 hrs by H and E staining analysis; format: organism-based; details: in vivo
[16] = system: U-251; test: Induction of apoptosis in human U-251 cells assessed as formation of spindle shaped cells at 0.375 to 6 uM measured after 72 hrs by Giemsa staining based microscopic analysis; format: functional, cell-based; details: dose 0.375-6 µM
[17] = system: U-87MG ATCC; test: Downregulation of cyclin D1 gene expression in human U-87 MG cells at 0.075 to 1.2 uM measured after 72 hrs by western blot analysis; format: functional, cell-based; details: dose 0.075-1.2 µM
[18] = system: U-87MG ATCC; test: Upregulation of p16 INK4a gene expression in human U-87 MG cells at 0.075 to 1.2 uM measured after 72 hrs by western blot analysis; format: functional, cell-based; details: dose 0.075-1.2 µM
[19] = system: U-251; test: Upregulation of p16 INK4a gene expression in human U-251 cells at 0.075 to 1.2 uM measured after 72 hrs by western blot analysis; format: functional, cell-based; details: dose 0.075-1.2 µM
[20] = AUC (0 to t) in Sprague-Dawley rat plasma at 100 mg/kg, ip and measured upto 240 mins by LC-MS analysis; format: ADME, organism-based; set-up: dose 100 mg/kg, time < 240 min, route ip
[21] = Acute toxicity in Kunming mouse assessed as pathological changes in liver at 600 mg/kg, ip measured after 24 hrs by H and E staining analysis; format: organism-based; details: in vivo
[22] = system: U-87MG ATCC; test: Antiproliferative activity against human U-87 MG cells assessed as reduction in cell proliferation at 0.125 to 0.5 uM and measured after 24 hrs by EdU incorporation based assay; format: functional; details: dose 0.125-0.5 µM, DDE = dose-dependent effect
[23] = system: U-251; test: Antiinvasive activity against human U-251 cells assessed as inhibition of cell invasion at 0.25 to 1.0 uM measured after 24 hrs by transwell invasion assay; format: functional, cell-based; details: dose 0.25-1 µM, DDE = dose-dependent effect
[24] = system: U-87MG ATCC; test: Antiproliferative activity against human U-87 MG cells assessed as reduction in colony number at 0.125 to 0.5 uM for 2 to 3 weeks by crystal violet staining based plate clone formation assay; format: functional, cell-based; details: dose 0.125-0.5 µM, time 2-3 weeks, DDE = dose-dependent effect
[25] = AUC (0 to t) in Sprague-Dawley rat brain at 100 mg/kg, ip and measured upto 240 mins by LC-MS analysis; format: ADME, organism-based; set-up: dose 100 mg/kg, time < 240 min, route ip
[26] = system: U-251; test: Antiproliferative activity against human U-251 cells assessed as reduction in cell proliferation at 0.075 to 1.2 uM and measured after 24 hrs by EdU incorporation based assay; format: functional; details: dose 0.075-1.2 µM, DDE = dose-dependent effect
[27] = Acute toxicity in Kunming mouse assessed as survival at 600 mg/kg, ip measured after 14 days; format: organism-based; details: in vivo, 336 h, time 14 day
[28] = system: U-251; test: Antiproliferative activity against human U-251 cells assessed as reduction in colony number at 0.25 to 1 uM for 2 to 3 weeks by crystal violet staining based plate clone formation assay; format: functional, cell-based; details: dose 0.25-1 µM, time 2-3 weeks, DDE = dose-dependent effect
[29] = Permeability of compound across blood brain barrier in Sprague-Dawley rat at 100 mg/kg, ip and measured after 240 mins by LC-MS analysis; format: ADME, organism-based; details: read-out: BBR
[30] = system: U-87MG ATCC; test: Antitumor activity against human U-87 MG cells xenografted in BALB/c mouse assessed assessed as inhibition of tumor cell proliferation at 10 mg/kg,ip bid for 1 month by Ki67 staining based immunohistochemical analysis; format: functional, organism-based; details: time 1.0 months
[31] = system: U-251; test: Downregulation of CDK6 gene expression in human U-251 cells at 0.075 to 1.2 uM measured after 72 hrs by western blot analysis; format: functional, cell-based; details: dose 0.075-1.2 µM
[32] = system: U-251; test: Induction of cell cycle arrest in human U-251 cells assessed as decrease in accumulation at S phase at 0.75 to 3 uM measured after 72 hrs by flow cytometry; format: functional, cell-based; details: dose 0.75-3 µM, DDE = dose-dependent effect
[33] = system: U-87MG ATCC; test: Induction of cell cycle arrest in human U-87 MG cells assessed as accumulation at G0/G1 phase at 0.075 to 1.2 uM and measured after 72 hrs by flow cytometry; format: functional, cell-based; details: dose 0.075-1.2 µM, DDE = dose-dependent effect
[34] = system: U-251; test: Induction of apoptosis in human U-251 cells assessed as late apoptotic cells at 6 uM incubated for 72 hrs by Annexin V-FITC/PI staining based flow cytometry method (Rvb =1.31 %); format: functional

Structure (SMILES): COCCN1CCN(c2ccc(F)cc2C(=O)Nc2ccc(CNC(=O)OCc3cccnc3)cc2)CC1
- Activity [1]: 4.51%
- Cmax [2]: 92.5 µg/mL
- Activity [3]: 0.34%
- Activity [4]: Active
- Activity [5]: Active
- Activity [6]: Active
- Activity [7]: Dde
- viability at 1.2 µM [8]: 70.3%
- Activity [9]: Active
- AUC(0-inf) [10]: 102 µg·h/mL
- Activity [11]: Active
- Activity [12]: Dde
- Activity [13]: 0.41%
- Activity [14]: Non-Toxic
- Activity [15]: Non-Toxic
- Activity [16]: Active
- Activity [17]: Active
- Activity [18]: Active
- Activity [19]: Active
- AUC(0-t) at 4 h [20]: 90.4 µg·h/mL
- Activity [21]: Non-Toxic
- Activity [22]: Dde
- Activity [23]: Dde
- Activity [24]: Dde
- AUC(0-t) at 4 h [25]: 97 µg·h/mL
- Activity [26]: Dde
- Activity [27]: Non-Toxic
- Activity [28]: Dde
- Kp at 4 h [29]: 1.07
- Activity [30]: Active
- Activity [31]: Active
- Activity [32]: Dde
- Activity [33]: Dde
- Activity [34]: 5.75%
